Converted amounts (≈) assume the structure as drawn.
Test: solubility in ethanol by conventional methods
Format: physicochemical
Conditions: organic solvent or mixture, separate experiments by conventional methods
Description: The invention was tested on the sulfisoxazole/polyvinylpyrrolidone system in ethanol where sulfisoxazole was the active ingredient and polyvinylpyrrolidone was the carrier of choice. The total time required to evaporate ethanol for each sample was less than 30 seconds. […] This information is important because these solubility parameters determine the minimum amount (volume) of solvent required to co-dissolve the active ingredient and the carrier molecules. Next eight ethanol solutions were prepared of different sulfisoxazole to polyvinylpyrrolidone weight (molar) ratios.

solubility: 16 mg/mL (≈ 59.9 mM)
Compound: Cc1noc(NS(=O)(=O)c2ccc(N)cc2)c1C [sulfisoxazole]

From patent US20030129753A1, “Chemical screening method” (priority 2002, published 2003)
